system: Digitaria sanguinalis (DIGSA); test: Post-emergence efficacy, glasshouse; format: in vivo; conditions: Digitaria sanguinalis, post-emergence, 312 h; Application Rate 1000 g/Ha; evaluated after 13 days; 100=total damage to plant, 0=no damage to plant; read-out: Control of weed species after post-emergence application, DIGSA
How it was run: (§1)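 Plants grown 14 days in standard soil in pots in the glasshouse (24/16° C. day/night, 14 h light, 65% humidity) were sprayed with test compound diluted in 0.25% or 1% Empicol ESC70 plus 1% ammonium sulphate in water. Damage was scored 13 days later (0 = none, 100 = total).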

Question: With `CC[n+]1cc(C(=O)[N-]S(C)(=O)=O)c2ccccc2n1` [Compound A22, (2-ethylcinnolin-2-ium-4-carbonyl)-methylsulfonyl-azanide] as the molecule, how does the pest or weed control at 1000 g/ha read?
Answer: Its pest or weed control at 1000 g/ha is 80%.

Question: Which pest or weed control at 1000 g/ha does the source give for `COC(=O)CCS(=O)(=O)[N-]C(=O)c1c[n+](C)nc2ccccc12` [Compound A42] here?
Answer: Its pest or weed control at 1000 g/ha is 60%.

Question: `COC(=O)C[n+]1cc(C(=O)[N-]S(C)(=O)=O)c2ccccc2n1` [Compound A15, [2-(2-methoxy-2-oxo-ethyl)cinnolin-2-ium-4-carbonyl]-methylsulfonyl-azanide] was tested. Which pest or weed control at 1000 g/ha did it give?
Answer: The pest or weed control at 1000 g/ha was 0%.

Question: Which pest or weed control at 1000 g/ha does the source give for `Cn1ncnc1NC(=O)c1c[n+](C)nc2ccccc12` [Compound A25, 2-methyl-N-(2-methyl-1,2,4-triazol-3-yl)cinnolin-2-ium-4-carboxamide iodide] here?
Answer: The pest or weed control at 1000 g/ha was 10%.

system: Euphorbia heterophylla (EPHHL); test: Post-emergence efficacy, glasshouse; format: in vivo; conditions: Euphorbia heterophylla, post-emergence, 312 h; Application Rate 1000 g/Ha; evaluated after 13 days; 100=total damage to plant, 0=no damage to plant; read-out: Control of weed species after post-emergence application, EPHHL
How it was run: as §1

Question: Which pest or weed control at 1000 g/ha does the source give for `CC[n+]1cc(C(=O)[N-]S(C)(=O)=O)c2ccccc2n1` [Compound A22, (2-ethylcinnolin-2-ium-4-carbonyl)-methylsulfonyl-azanide] here?
Answer: Its pest or weed control at 1000 g/ha is 60%.

Question: For `COC(=O)CCS(=O)(=O)[N-]C(=O)c1c[n+](C)nc2ccccc12` [Compound A42], which pest or weed control at 1000 g/ha is on record?
Answer: Its pest or weed control at 1000 g/ha is 60%.

Question: How did the pest or weed control at 1000 g/ha turn out when `COC(=O)C[n+]1cc(C(=O)[N-]S(C)(=O)=O)c2ccccc2n1` [Compound A15, [2-(2-methoxy-2-oxo-ethyl)cinnolin-2-ium-4-carbonyl]-methylsulfonyl-azanide] was run?
Answer: Its pest or weed control at 1000 g/ha is 30%.

Question: For `Cn1ncnc1NC(=O)c1c[n+](C)nc2ccccc12` [Compound A25, 2-methyl-N-(2-methyl-1,2,4-triazol-3-yl)cinnolin-2-ium-4-carboxamide iodide], which pest or weed control at 1000 g/ha is on record?
Answer: Its pest or weed control at 1000 g/ha is 20%.

system: Amaranthus palmeri (AMAPA); test: Post-emergence efficacy, glasshouse; format: in vivo; conditions: Amaranthus palmeri, post-emergence, 312 h; Application Rate 1000 g/Ha; evaluated after 13 days; 100=total damage to plant, 0=no damage to plant; read-out: Control of weed species after post-emergence application, AMAPA
How it was run: as §1

Question: Which pest or weed control at 1000 g/ha does the source give for `CC[n+]1cc(C(=O)[N-]S(C)(=O)=O)c2ccccc2n1` [Compound A22, (2-ethylcinnolin-2-ium-4-carbonyl)-methylsulfonyl-azanide] here?
Answer: Its pest or weed control at 1000 g/ha is 70%.

Question: For `COC(=O)CCS(=O)(=O)[N-]C(=O)c1c[n+](C)nc2ccccc12` [Compound A42], which pest or weed control at 1000 g/ha is on record?
Answer: The pest or weed control at 1000 g/ha was 70%.

Question: `COC(=O)C[n+]1cc(C(=O)[N-]S(C)(=O)=O)c2ccccc2n1` [Compound A15, [2-(2-methoxy-2-oxo-ethyl)cinnolin-2-ium-4-carbonyl]-methylsulfonyl-azanide] was tested. Which pest or weed control at 1000 g/ha did it give?
Answer: The pest or weed control at 1000 g/ha was 50%.

Question: How did the pest or weed control at 1000 g/ha turn out when `Cn1ncnc1NC(=O)c1c[n+](C)nc2ccccc12` [Compound A25, 2-methyl-N-(2-methyl-1,2,4-triazol-3-yl)cinnolin-2-ium-4-carboxamide iodide] was run?
Answer: The pest or weed control at 1000 g/ha was 50%.

system: Chenopodium album (CHEAL); test: Post-emergence efficacy, glasshouse; format: in vivo; conditions: Chenopodium album, post-emergence, 312 h; Application Rate 1000 g/Ha; evaluated after 13 days; 100=total damage to plant, 0=no damage to plant; read-out: Control of weed species after post-emergence application, CHEAL
How it was run: as §1

Question: `CC[n+]1cc(C(=O)[N-]S(C)(=O)=O)c2ccccc2n1` [Compound A22, (2-ethylcinnolin-2-ium-4-carbonyl)-methylsulfonyl-azanide] was tested. Which pest or weed control at 1000 g/ha did it give?
Answer: The pest or weed control at 1000 g/ha was 70%.

Question: `COC(=O)CCS(=O)(=O)[N-]C(=O)c1c[n+](C)nc2ccccc12` [Compound A42] was tested. Which pest or weed control at 1000 g/ha did it give?
Answer: Its pest or weed control at 1000 g/ha is 60%.

Question: How did the pest or weed control at 1000 g/ha turn out when `COC(=O)C[n+]1cc(C(=O)[N-]S(C)(=O)=O)c2ccccc2n1` [Compound A15, [2-(2-methoxy-2-oxo-ethyl)cinnolin-2-ium-4-carbonyl]-methylsulfonyl-azanide] was run?
Answer: The pest or weed control at 1000 g/ha was 30%.

Question: With `Cn1ncnc1NC(=O)c1c[n+](C)nc2ccccc12` [Compound A25, 2-methyl-N-(2-methyl-1,2,4-triazol-3-yl)cinnolin-2-ium-4-carboxamide iodide] as the molecule, how does the pest or weed control at 1000 g/ha read?
Answer: Its pest or weed control at 1000 g/ha is 50%.

system: Eleusine indica (ELEIN); test: Post-emergence efficacy, glasshouse; format: in vivo; conditions: Eleusine indica, post-emergence, 312 h; Application Rate 1000 g/Ha; evaluated after 13 days; 100=total damage to plant, 0=no damage to plant; read-out: Control of weed species after post-emergence application, ELEIN
How it was run: as §1

Question: Which pest or weed control at 1000 g/ha does the source give for `CC[n+]1cc(C(=O)[N-]S(C)(=O)=O)c2ccccc2n1` [Compound A22, (2-ethylcinnolin-2-ium-4-carbonyl)-methylsulfonyl-azanide] here?
Answer: Its pest or weed control at 1000 g/ha is 70%.

Question: For `COC(=O)CCS(=O)(=O)[N-]C(=O)c1c[n+](C)nc2ccccc12` [Compound A42], which pest or weed control at 1000 g/ha is on record?
Answer: The pest or weed control at 1000 g/ha was 80%.

Question: For `COC(=O)C[n+]1cc(C(=O)[N-]S(C)(=O)=O)c2ccccc2n1` [Compound A15, [2-(2-methoxy-2-oxo-ethyl)cinnolin-2-ium-4-carbonyl]-methylsulfonyl-azanide], which pest or weed control at 1000 g/ha is on record?
Answer: The pest or weed control at 1000 g/ha was 0%.

Question: For `Cn1ncnc1NC(=O)c1c[n+](C)nc2ccccc12` [Compound A25, 2-methyl-N-(2-methyl-1,2,4-triazol-3-yl)cinnolin-2-ium-4-carboxamide iodide], which pest or weed control at 1000 g/ha is on record?
Answer: Its pest or weed control at 1000 g/ha is 10%.

system: Lolium perenne (LOLPE); test: Post-emergence efficacy, glasshouse; format: in vivo; conditions: Lolium perenne, post-emergence, 312 h; Application Rate 1000 g/Ha; evaluated after 13 days; 100=total damage to plant, 0=no damage to plant; read-out: Control of weed species after post-emergence application, LOLPE
How it was run: as §1

Question: How did the pest or weed control at 1000 g/ha turn out when `CC[n+]1cc(C(=O)[N-]S(C)(=O)=O)c2ccccc2n1` [Compound A22, (2-ethylcinnolin-2-ium-4-carbonyl)-methylsulfonyl-azanide] was run?
Answer: Its pest or weed control at 1000 g/ha is 60%.

Question: `COC(=O)CCS(=O)(=O)[N-]C(=O)c1c[n+](C)nc2ccccc12` [Compound A42] was tested. Which pest or weed control at 1000 g/ha did it give?
Answer: The pest or weed control at 1000 g/ha was 10%.

Question: How did the pest or weed control at 1000 g/ha turn out when `COC(=O)C[n+]1cc(C(=O)[N-]S(C)(=O)=O)c2ccccc2n1` [Compound A15, [2-(2-methoxy-2-oxo-ethyl)cinnolin-2-ium-4-carbonyl]-methylsulfonyl-azanide] was run?
Answer: The pest or weed control at 1000 g/ha was 10%.

Question: Which pest or weed control at 1000 g/ha does the source give for `Cn1ncnc1NC(=O)c1c[n+](C)nc2ccccc12` [Compound A25, 2-methyl-N-(2-methyl-1,2,4-triazol-3-yl)cinnolin-2-ium-4-carboxamide iodide] here?
Answer: Its pest or weed control at 1000 g/ha is 10%.

system: Setaria faberi (SETFA); test: Post-emergence efficacy, glasshouse; format: in vivo; conditions: Setaria faberi, post-emergence, 312 h; Application Rate 1000 g/Ha; evaluated after 13 days; 100=total damage to plant, 0=no damage to plant; read-out: Control of weed species after post-emergence application, SETFA
How it was run: as §1

Question: For `CC[n+]1cc(C(=O)[N-]S(C)(=O)=O)c2ccccc2n1` [Compound A22, (2-ethylcinnolin-2-ium-4-carbonyl)-methylsulfonyl-azanide], which pest or weed control at 1000 g/ha is on record?
Answer: Its pest or weed control at 1000 g/ha is 70%.

Question: `COC(=O)CCS(=O)(=O)[N-]C(=O)c1c[n+](C)nc2ccccc12` [Compound A42] was tested. Which pest or weed control at 1000 g/ha did it give?
Answer: Its pest or weed control at 1000 g/ha is 40%.

Question: How did the pest or weed control at 1000 g/ha turn out when `COC(=O)C[n+]1cc(C(=O)[N-]S(C)(=O)=O)c2ccccc2n1` [Compound A15, [2-(2-methoxy-2-oxo-ethyl)cinnolin-2-ium-4-carbonyl]-methylsulfonyl-azanide] was run?
Answer: The pest or weed control at 1000 g/ha was 10%.

Question: With `Cn1ncnc1NC(=O)c1c[n+](C)nc2ccccc12` [Compound A25, 2-methyl-N-(2-methyl-1,2,4-triazol-3-yl)cinnolin-2-ium-4-carboxamide iodide] as the molecule, how does the pest or weed control at 1000 g/ha read?
Answer: The pest or weed control at 1000 g/ha was 20%.

system: Echinochloa crus-galli (ECHCG); test: Post-emergence efficacy, glasshouse; format: in vivo; conditions: Echinochloa crus-galli, post-emergence, 312 h; Application Rate 1000 g/Ha; evaluated after 13 days; 100=total damage to plant, 0=no damage to plant; read-out: Control of weed species after post-emergence application, ECHCG
How it was run: as §1

Question: Which pest or weed control at 1000 g/ha does the source give for `CC[n+]1cc(C(=O)[N-]S(C)(=O)=O)c2ccccc2n1` [Compound A22, (2-ethylcinnolin-2-ium-4-carbonyl)-methylsulfonyl-azanide] here?
Answer: The pest or weed control at 1000 g/ha was 50%.

Question: `COC(=O)CCS(=O)(=O)[N-]C(=O)c1c[n+](C)nc2ccccc12` [Compound A42] was tested. Which pest or weed control at 1000 g/ha did it give?
Answer: Its pest or weed control at 1000 g/ha is 20%.

Question: `COC(=O)C[n+]1cc(C(=O)[N-]S(C)(=O)=O)c2ccccc2n1` [Compound A15, [2-(2-methoxy-2-oxo-ethyl)cinnolin-2-ium-4-carbonyl]-methylsulfonyl-azanide] was tested. Which pest or weed control at 1000 g/ha did it give?
Answer: The pest or weed control at 1000 g/ha was 20%.

Question: `Cn1ncnc1NC(=O)c1c[n+](C)nc2ccccc12` [Compound A25, 2-methyl-N-(2-methyl-1,2,4-triazol-3-yl)cinnolin-2-ium-4-carboxamide iodide] was tested. Which pest or weed control at 1000 g/ha did it give?
Answer: The pest or weed control at 1000 g/ha was 10%.

system: Ipomoea hederacea (IPOHE); test: Post-emergence efficacy, glasshouse; format: in vivo; conditions: Ipomoea hederacea, post-emergence, 312 h; Application Rate 1000 g/Ha; evaluated after 13 days; 100=total damage to plant, 0=no damage to plant; read-out: Control of weed species after post-emergence application, IPOHE
How it was run: as §1

Question: Which pest or weed control at 1000 g/ha does the source give for `CC[n+]1cc(C(=O)[N-]S(C)(=O)=O)c2ccccc2n1` [Compound A22, (2-ethylcinnolin-2-ium-4-carbonyl)-methylsulfonyl-azanide] here?
Answer: Its pest or weed control at 1000 g/ha is 90%.

Question: How did the pest or weed control at 1000 g/ha turn out when `COC(=O)CCS(=O)(=O)[N-]C(=O)c1c[n+](C)nc2ccccc12` [Compound A42] was run?
Answer: The pest or weed control at 1000 g/ha was 40%.

Question: For `COC(=O)C[n+]1cc(C(=O)[N-]S(C)(=O)=O)c2ccccc2n1` [Compound A15, [2-(2-methoxy-2-oxo-ethyl)cinnolin-2-ium-4-carbonyl]-methylsulfonyl-azanide], which pest or weed control at 1000 g/ha is on record?
Answer: The pest or weed control at 1000 g/ha was 10%.

Question: `Cn1ncnc1NC(=O)c1c[n+](C)nc2ccccc12` [Compound A25, 2-methyl-N-(2-methyl-1,2,4-triazol-3-yl)cinnolin-2-ium-4-carboxamide iodide] was tested. Which pest or weed control at 1000 g/ha did it give?
Answer: The pest or weed control at 1000 g/ha was 30%.

From patent US20220132847A1, “CINNOLINIUM COMPOUNDS FOR USE IN A METHOD OF CONTROLLING UNWANTED PLANT GROWTH” (SYNGENTA CROP PROTECTION AG, priority 2019, published 2022)
